Test results as given in patent publication US20250042894A1, “PROTEIN TYROSINE PHOSPHATASE INHIBITORS AND METHODS OF USE THEREOF” (Calico Life Sciences LLC, priority 2021, published 2025).
Where two headings read alike, the source gives them in different places.

Experiments:
[1] = target: T1, His tagged PTPN2 (TC45) protein (Homo sapiens, UniProt P17706); assay: Mobility Shift Assay (MSA) for PTPN2 inhibitors; format: biochemical; conditions: for Thiochromane x-fold>potency biochemical: PTPN2 MSA IC50 of chromane comparator over thiochromane
T1 construct: His; made in house
T1 sequence (P17706 1-387 isoform P17706-2): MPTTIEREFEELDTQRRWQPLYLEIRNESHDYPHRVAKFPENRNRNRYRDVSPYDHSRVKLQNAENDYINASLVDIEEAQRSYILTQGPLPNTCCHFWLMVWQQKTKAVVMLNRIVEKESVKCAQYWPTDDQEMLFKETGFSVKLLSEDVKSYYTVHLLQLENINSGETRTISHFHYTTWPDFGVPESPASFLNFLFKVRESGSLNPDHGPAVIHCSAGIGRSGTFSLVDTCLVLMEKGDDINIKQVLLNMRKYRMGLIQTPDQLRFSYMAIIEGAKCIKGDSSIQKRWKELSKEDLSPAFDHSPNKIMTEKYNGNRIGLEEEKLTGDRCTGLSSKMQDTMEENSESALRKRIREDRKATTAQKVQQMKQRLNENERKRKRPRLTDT
In short: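 Enzyme (0.5 nM) preincubated 10 min at RT with compound (12-point, 1:3 dilution) in 50 mM HEPES pH 7.5, 10 mM EDTA, 2 mM DTT; OG488-labelled phospho-insulin-receptor peptide substrate (2 μM) then added for 10 min. After quench, dephosphorylation measured by microfluidic mobility shift (ex 488/em 530 nm); IC50 from % inhibition.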

[2] = target: T2, His tagged full-length PTPN1 protein (Homo sapiens, UniProt P18031); assay: Mobility Shift Assay (MSA) for PTPN1 inhibitors; format: biochemical; conditions: enzyme 0.5 nM, substrate 2 μM, 10 minutes preincubation at room temperature
T2 construct: His; made in house
T2 sequence (P18031 1-435): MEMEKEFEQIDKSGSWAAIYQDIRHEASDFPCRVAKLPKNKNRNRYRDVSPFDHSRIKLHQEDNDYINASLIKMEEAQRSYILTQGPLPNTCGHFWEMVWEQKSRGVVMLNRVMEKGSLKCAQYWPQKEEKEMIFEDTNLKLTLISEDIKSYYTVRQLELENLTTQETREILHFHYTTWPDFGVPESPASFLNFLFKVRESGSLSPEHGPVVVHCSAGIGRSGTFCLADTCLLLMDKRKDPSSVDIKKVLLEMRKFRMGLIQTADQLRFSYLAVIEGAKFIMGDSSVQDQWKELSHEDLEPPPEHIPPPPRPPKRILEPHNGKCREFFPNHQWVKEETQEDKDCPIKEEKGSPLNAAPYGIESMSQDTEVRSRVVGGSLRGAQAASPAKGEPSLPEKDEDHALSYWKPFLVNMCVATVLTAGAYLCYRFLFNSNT
In short: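 Full-length His-tagged human PTPN1 (0.5 nM) was pre-incubated 10 min at RT with compound (12-point, 1:3) in HEPES pH 7.5 buffer with EGTA, EDTA, Tween-20 and DTT. Fluorescent phospho-insulin-receptor peptide (2 μM) was then added for 10 min. After quench, dephosphorylation was measured by microfluidic mobility shift, and IC50 was taken from % inhibition.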

[3] = test system: IFNγ-induced STAT1 phosphorylation (pSTAT1) in B16F10 cells; assay: B16F10 Phospho-STAT1 HTRF proximal pharmacodynamic (PD) assay; format: cell-based, murine; conditions: for EC50: B16-F10; for Thiochromane x-fold>potency cellular: pSTAT1 EC50 of chromane comparator over thiochromane
In short: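 Murine B16F10 melanoma cells dosed 3 h at 37 °C (10-point, 3-fold dilution from 50 μM top dose), then stimulated 10 min with recombinant mouse IFNγ (100 nM final) and stopped with 3.3 μM staurosporine for 1 h. pSTAT1 in lysates detected by HTRF (Eu cryptate/d2 antibodies, 3 h RT, 665 nm emission); EC50 from dose-response curves.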

[4] = enzyme 0.5 nM, substrate 2 μM, 10 minutes preincubation at room temperature
[5] = Table 2, 3 hours compound, then mouse IFNγ 100 nM 10 minutes, top dose 50 μM, read-out: B16F10 IFNγ Induced pSTAT1 EC50
[6] = Mus musculus, Table 3, B16F10 cells, IFNγ-induced, thiochromanes (X = S) and chromane comparators (X = O), read-out: pSTAT1 EC50

SMILES	IC50 [2] [nM]	EC50 [3, 5] [nM]	EC50 [3, 6] [nM]	Thiochromane x-fold>potency biochemical ([1]; Table 3)	IC50 [1, 4] [nM]	Thiochromane x-fold>potency cellular ([3]; Table 3)	IC50 ([1]; Table 3, thiochromanes (X = S) and chromane comparators (X = O)) [nM]
O=C1CN(c2c(O)cc3c(c2F)C[C@H](NCC2(CF)CC2)CS3)S(=O)(=O)N1 [Compound 128, 5-[(3S)-5-fluoro-3-({[1-(fluoromethyl)cyclopropyl]methyl}amino)-7-hydroxy-3,4-dihydro-2H-1-benzothiopyran-6-yl]-1λ^6,2,5-thiadiazolidine-1,1,3-trione]	10 to 100	25700	25700	1.2	10 to 100	>1.9	
COCCCN[C@@H]1CSc2cc(O)c(N3CC(=O)NS3(=O)=O)c(F)c2C1 [Compound 130, 5-{(3S)-5-fluoro-7-hydroxy-3-[(3-methoxypropyl)amino]-3,4-dihydro-2H-1-benzothiopyran-6-yl}-1λ^6,2,5-thiadiazolidine-1,1,3-trione]	10 to 100	4110			10 to 100		
CC1(CCN[C@@H]2CSc3cc(O)c(N4CC(=O)NS4(=O)=O)c(F)c3C2)CC1 [Compound 132, 5-[(3S)-5-fluoro-7-hydroxy-3-{[2-(1-methylcyclopropyl)ethyl]amino}-3,4-dihydro-2H-1-benzothiopyran-6-yl]-1λ^6,2,5-thiadiazolidine-1,1,3-trione]	10 to 100	1580			< 10		
CC(CN[C@@H]1CSc2cc(O)c(N3CC(=O)NS3(=O)=O)c(F)c2C1)C1CC1 (stereo partly drawn) [Compound 133, 5-{(3S)-3-[(2-cyclopropylpropyl)amino]-5-fluoro-7-hydroxy-3,4-dihydro-2H-1-benzothiopyran-6-yl}-1λ^6,2,5-thiadiazolidine-1,1,3-trione]	< 10	762			< 10		
CC(CCN[C@@H]1CSc2cc(O)c(N3CC(=O)NS3(=O)=O)c(F)c2C1)c1ccccc1 (stereo partly drawn) [Compound 134, 5-{(3S)-5-fluoro-7-hydroxy-3-[(3-phenylbutyl)amino]-3,4-dihydro-2H-1-benzothiopyran-6-yl}-1λ^6,2,5-thiadiazolidine-1,1,3-trione]	10 to 100	> 50000			< 10		
O=C1CN(c2c(O)cc3c(c2F)C[C@H](NCC2CC(c4ccccc4)C2)CS3)S(=O)(=O)N1 (stereo partly drawn) [Compound 135, 5-[(3S)-5-fluoro-7-hydroxy-3-{[(3-phenylcyclobutyl)methyl]amino}-3,4-dihydro-2H-1-benzothiopyran-6-yl]-1λ^6,2,5-thiadiazolidine-1,1,3-trione]	10 to 100	688	688	1.9	< 10	>72.7	
O=C1CN(c2c(O)cc3c(c2F)C[C@H](NCCCc2ccccc2)CS3)S(=O)(=O)N1 [Compound 136, 5-{(3S)-5-fluoro-7-hydroxy-3-[(3-phenylpropyl)amino]-3,4-dihydro-2H-1-benzothiopyran-6-yl}-1λ^6,2,5-thiadiazolidine-1,1,3-trione]	10 to 100	27600	27600	0.8	10 to 100	>1.8	
O=C1CN(c2c(O)cc3c(c2F)C[C@H](NCCCOCC(F)F)CS3)S(=O)(=O)N1 [Compound 137, 5-[(3S)-3-{[3-(2,2-difluoroethoxy)propyl]amino}-5-fluoro-7-hydroxy-3,4-dihydro-2H-1-benzothiopyran-6-yl]-1λ^6,2,5-thiadiazolidine-1,1,3-trione]	10 to 100	> 50000	> 50000	1.1	10 to 100	~1.0	21
O=C1CN(c2c(O)cc3c(c2F)C[C@H](NCC2CCC(C(F)(F)F)CC2)CS3)S(=O)(=O)N1 (stereo partly drawn) [Compound 139, 5-[(3S)-5-fluoro-7-hydroxy-3-({[4-(trifluoromethyl)cyclohexyl]methyl}amino)-3,4-dihydro-2H-1-benzothiopyran-6-yl]-1λ^6,2,5-thiadiazolidine-1,1,3-trione]	10 to 100	> 50000	> 50000	5.4	< 10	~1.0	

Now from value to compound, other results behind:

IC50 [2] [nM]	EC50 [3, 5] [nM]	EC50 [3, 6] [nM]	SMILES	Thiochromane x-fold>potency biochemical ([1]; Table 3)	IC50 [1, 4] [nM]	Thiochromane x-fold>potency cellular ([3]; Table 3)	IC50 ([1]; Table 3, thiochromanes (X = S) and chromane comparators (X = O)) [nM]
< 10	589		CC(F)(F)CCCN[C@@H]1CSc2cc(O)c(N3CC(=O)NS3(=O)=O)c(F)c2C1 [Compound 129, 5-{(3S)-3-[(4,4-difluoropentyl)amino]-5-fluoro-7-hydroxy-3,4-dihydro-2H-1-benzothiopyran-6-yl}-1λ^6,2,5-thiadiazolidine-1,1,3-trione]		< 10		
> 100	> 50000		O=C1CN(c2c(O)cc3c(c2F)C[C@H](NCCCn2cccn2)CS3)S(=O)(=O)N1 [Compound 131, 5-[(3S)-5-fluoro-7-hydroxy-3-{[3-(1H-pyrazol-1-yl)propyl]amino}-3,4-dihydro-2H-1-benzothiopyran-6-yl]-1λ^6,2,5-thiadiazolidine-1,1,3-trione]		10 to 100		
10 to 100	2950	2950	CC1=C(CCN[C@@H]2CSc3cc(O)c(N4CC(=O)NS4(=O)=O)c(F)c3C2)C(C)(C)CCC1 [Compound 140, 5-[(3S)-5-fluoro-7-hydroxy-3-{[2-(2,6,6-trimethylcyclohex-1-en-1-yl)ethyl]amino}-3,4-dihydro-2H-1-benzothiopyran-6-yl]-1λ^6,2,5-thiadiazolidine-1,1,3-trione]	1.5	10 to 100	>16.9	
10 to 100	6970	6970	CC(C)(C)OC(=O)N1CCC(CN[C@@H]2CSc3cc(O)c(N4CC(=O)NS4(=O)=O)c(F)c3C2)CC1 [Compound 141, tert-butyl 4-({[(3S)-5-fluoro-7-hydroxy-6-(1,1,4-trioxo-1λ^6,2,5-thiadiazolidin-2-yl)-3,4-dihydro-2H-1-benzothiopyran-3-yl]amino}methyl)piperidine-1-carboxylate]	1.0	10 to 100	>7.2	
